Data as given in US9469863B2, “Aminoglycoside antibiotics, process for producing the same, and pharmaceutical use thereof” (MEIJI SEIKA KAISHA, LTD., priority 2007, dated 2016).
Converted amounts (≈) assume the structure as drawn.

Key:
[1] = Physicochemical properties: solubility
[2] = test system: Escherichia coli ATCC25922; assay: Antimicrobial activity, MIC by agar dilution method; assay type: cell-based; conditions: Mueller-Hinton agar, 37° C., 18 to 20 hr
Method: (§1) The antimicrobial activity of 2-hydroxykanamycin B and 2-hydroxykanamycin C was measured as the minimum inhibitory concentration (MIC) by an agar dilution method. Test bacteria which had been cultivated overnight in a growth medium were adjusted to 10^6 cells/ml, and one platinum loop thereof was inoculated in a Mueller-Hinton agar medium containing 2-hydroxykanamycin B or 2-hydroxykanamycin C (manufactured by Difco Laboratories Inc.), followed by cultivation at 37° C. for 18 to 20 hr.

[3] = test system: Acinetobacter calcoaceticus ATCC23055; assay: as above; assay type: cell-based; conditions: Mueller-Hinton agar, 37° C., 18 to 20 hr
Method: as §1

[4] = test system: Bacillus subtilis ATCC6633; assay: as above; assay type: cell-based; conditions: Mueller-Hinton agar, 37° C., 18 to 20 hr
Method: as §1

[5] = test system: Salmonella typhimurium ATCC13311; assay: as above; assay type: cell-based; conditions: Salmonella enterica, Mueller-Hinton agar, 37° C., 18 to 20 hr
Method: as §1

[6] = test system: Pseudomonas aeruginosa PA01; assay: as above; assay type: cell-based; conditions: Mueller-Hinton agar, 37° C., 18 to 20 hr
Method: as §1

[7] = test system: Staphylococcus epidermidis ATCC14990; assay: as above; assay type: cell-based; conditions: Mueller-Hinton agar, 37° C., 18 to 20 hr
Method: as §1

[8] = test system: Staphylococcus aureus 209P JC-1; assay: as above; assay type: cell-based; conditions: Mueller-Hinton agar, 37° C., 18 to 20 hr
Method: as §1

[9] = test system: Enterococcus faecium ATCC19434; assay: as above; assay type: cell-based; conditions: Mueller-Hinton agar, 37° C., 18 to 20 hr
Method: as §1

[10] = test system: Enterococcus faecalis ATCC29212; assay: as above; assay type: cell-based; conditions: Mueller-Hinton agar, 37° C., 18 to 20 hr
Method: as §1

[11] = test system: Staphylococcus aureus ATCC29213; assay: as above; assay type: cell-based; conditions: Mueller-Hinton agar, 37° C., 18 to 20 hr
Method: as §1

Row | Solubility ([1]; in chloroform) | Solubility ([1]; in ethyl acetate) | Solubility ([1]; in water) | MIC [2] [µg/mL] | MIC [3] [µg/mL] | MIC [4] [µg/mL] | MIC [5] [µg/mL] | MIC [6] [µg/mL] | MIC [7] [µg/mL] | MIC [8] [µg/mL] | MIC [9] [µg/mL] | MIC [10] [µg/mL] | MIC [11] [µg/mL] | SMILES
1 | insoluble | insoluble | soluble | 4 (≈ 8.01 µM) | 1 (≈ 2 µM) | 0.5 (≈ 1 µM) | 1 (≈ 2 µM) | 128 (≈ 256 µM) | 1 (≈ 2 µM) | 2 (≈ 4 µM) | 64 (≈ 128 µM) | 64 (≈ 128 µM) | 2 (≈ 4 µM) | NCC1OC(OC2C(N)C(O)C(N)C(OC3OC(CO)C(O)C(N)C3O)C2O)C(N)C(O)C1O (centres unmarked) [2-Hydroxykanamycin B, 2-hydroxykanamycin B]
2 | insoluble | insoluble | soluble | 128 (≈ 256 µM) | 32 (≈ 63.9 µM) | 16 (≈ 32 µM) | 32 (≈ 63.9 µM) | > 128 | 32 (≈ 63.9 µM) | 128 (≈ 256 µM) | > 128 | > 128 | 128 (≈ 256 µM) | NC1C(O)C(CO)OC(OC2C(N)C(O)C(N)C(OC3OC(CO)C(O)C(O)C3N)C2O)C1O (centres unmarked) [2-Hydroxykanamycin C, 2-hydroxykanamycin C]
